Source: patent publication US8318950B2, “N-acyl amino acid derivatives, a method for the preparation thereof, a pharmaceutical composition and use thereof as anti-allergic, anti-inflammatory and hypolipidemic agents” (Otkrytoe Aktsionernoe Obschestvo-Otechestvennye Lekarstva, priority 2005, dated 2012)
“And” between values parts separate entries of the source, which are not always exact repeats. Equal entries are not always repeated.

System: hypercholesterolemia in Wistar rats
Assay: Model of hypercholesterolemia in rats (oral cholesterol loading)
Assay type: in vivo, rat
Experimental: The study was carried out on male Wistar rats weighing 200±20 g. Hyperlipidemia was induced by oral administration of cholesterol loading, oily cholesterol suspension:
olive oil (Acorsa, Spain)—5 ml/kg weigh of animals;
cholesterol (Sigma, USA)—1 g/kg weight;
sodium cholate (Sigma, USA)—100 mg/kg weight.
As a reference preparation, the preparation from the group of statines “Mevacor” (Lovastatine) manufactured by the firm Merck Sharp & Dohn was used at dose 40 mg/kg. Cholesterol suspension was administered daily in the morning for 10 days. The compounds tested (at dose 500 μg/kg) and the reference preparation (at dose 40 mg/kg) were administered to the animals togester with cholesterol suspension for 10 days. All the animals received a standard briquetted forage.
The animals were divided into the following groups:
“Control”—intact animals (n=5);
“Cholesterol”—rats that orally received cholesterol loading (n=10);
“Lovastatine”—rats that orally received cholesterol loading and Lovastatine (n=10);
“Compound IV”—rats that orally received cholesterol loading and the tested compound IV (n=10).
Blood was sampled at days 5, 8 and 10 of the experiment.
Statistical processing of the hypolipidemic action data of the tested substances was carried out with regard to the “Cholesterol” group (Table 13).
Experimental groups included:
1) “Cholesterol”—rats orally administered with oily cholesterol suspension for 10 days;
2) “Compound IV”—rats orally administered with oily cholesterol suspension and the tested compound N;
3) “Compound IV—1Na”—rats orally administered with oily cholesterol suspension and the tested mono-sodium salt of compound N;
4) “Compound IV—2Na”—rats orally administered with oily cholesterol suspension and the tested di-sodium salt of compound N;
5) “Compound V—1Na”—rats orally administered with oily cholesterol suspension and the tested mono-sodium salt of the compound V;
6) “Compound III—1Na”—rats orally administered with oily cholesterol suspension and the tested mono-sodium salt of the compound III;
7) “Compound II—1Na”—rats orally administered with oily cholesterol suspension and the tested mono-sodium salt of the compound II;
8) “Sim”—rats orally administered with oily cholesterol suspension and Simvastatine;
9) control—intact rats before beginning the test.
At day 10 of the test blood samples were taken following decapitation of the animals. The animals fasted for 12 hours prior to decapitation.
Blood serum total cholesterol, triglycerides and high density lipoprotein cholesterol (HDLC) were measured. Low and very low density lipoprotein cholesterol was calculated by the difference between total cholesterol and HDL cholesterol.
Blood serum total cholesterol and triglycerides were determined using the enzymatic methods.
Cholesterol level in high density lipoproteins (α-LP) was determined using the precipitation method of LDL and VLDL with phosphotungstic acid and magnesium ions.
Data in the tables are presented as a mean value±standard error. Significance of differences between the groups “cholesterol” and “preparation.” was assessed by the two-sampled Student's t-test.

[1] = day 5 of the experiment (Table 15)
[2] = day 5 of the experiment (Table 15), oral with oily cholesterol suspension
[3] = day 8 of the experiment (Table 16)
[4] = day 10 of the experiment (Table 17)
[5] = day 10 of the experiment (Table 21), Monosodium Salt
[6] = day 5 of the experiment (Table 19)
[7] = day 5 of the experiment (Table 19, n = 12 series)
[8] = day 8 of the experiment (Table 20)
[9] = day 10 of the experiment (Table 21)
[10] = rats with cholesterol loading, vs Cholesterol group
[11] = oral 10 days with cholesterol loading, tested compound 500 μg/kg, reference 40 mg/kg (Table 13)

O=C([O-])CCCC(=O)N[C@@H](Cc1c[nH]cn1)C(=O)O.[Na+] [Compound IV-1Na, N^α-glutaryl-L-histidine Monosodium Salt]
Total cholesterol, HDL [1]: 33.1 ± 1.4 mg/100 ml | Total cholesterol, LDL + VLDL [1]: 38.8 ± 2.9 mg/100 ml | Triglycerides, Serum [1]: 106.6 ± 6.2 mg/100 ml | Total cholesterol, Serum [2]: 72.0 ± 3.0 mg/100 ml | Total cholesterol, HDL (day 5 of the experiment (Table 19), Monosodium Salt): 60.7 ± 3.1 mg/100 ml and 55.1 ± 2.8 mg/100 ml | Total cholesterol, Serum (day 5 of the experiment (Table 19, n = 12 series), Monosodium Salt): 94.4 ± 3.4 mg/100 ml and 96.9 ± 4.5 mg/100 ml | Total cholesterol, HDL [3]: 37.1 ± 1.4 mg/100 ml | Total cholesterol, LDL + VLDL [3]: 61.9 ± 6.6 mg/100 ml | Total cholesterol, Serum [3]: 99.1 ± 6.0 mg/100 ml | Triglycerides, Serum [3]: 146.4 ± 11.2 mg/100 ml | Total cholesterol, HDL [4]: 37.7 ± 1.0 mg/100 ml | Total cholesterol, LDL + VLDL [4]: 59.7 ± 7.2 mg/100 ml | Total cholesterol, Serum [4]: 97.4 ± 7.1 mg/100 ml | Triglycerides, Serum [4]: 132.5 ± 8.4 mg/100 ml | Total cholesterol, HDL [5]: 53.4 ± 2.2 mg/100 ml and 52.9 ± 3.8 mg/100 ml | Total cholesterol, LDL + VLDL [5]: 68.7 ± 10.1 mg/100 ml and 70.5 ± 8.9 mg/100 ml | Total cholesterol, Serum [5]: 122.1 ± 9.8 mg/100 ml and 123.3 ± 7.3 mg/100 ml

O=C([O-])CCCC(=O)N[C@@H](Cc1c[nH]cn1)C(=O)[O-].[Na+].[Na+] [Compound IV” 2Na, N^α-glutaryl-L-histidine disodium salt]
Total cholesterol, HDL [1]: 35.0 ± 1.3 mg/100 ml | Total cholesterol, LDL + VLDL [1]: 44.3 ± 2.7 mg/100 ml | Triglycerides, Serum [1]: 88.3 ± 4.8 mg/100 ml | Total cholesterol, Serum [2]: 80.6 ± 2.8 mg/100 ml | Total cholesterol, HDL [3]: 35.9 ± 1.8 mg/100 ml | Total cholesterol, LDL + VLDL [3]: 54.3 ± 5.8 mg/100 ml | Total cholesterol, Serum [3]: 90.2 ± 5.1 mg/100 ml | Triglycerides, Serum [3]: 125.8 ± 9.4 mg/100 ml | Total cholesterol, HDL [4]: 40.0 ± 1.9 mg/100 ml | Total cholesterol, LDL + VLDL [4]: 57.3 ± 4.3 mg/100 ml | Total cholesterol, Serum [4]: 97.9 ± 3.9 mg/100 ml | Triglycerides, Serum [4]: 127.3 ± 6.2 mg/100 ml | effect on serum total triglycerides (in words) (rats with cholesterol loading): lowered serum total triglyceride levels at days 5 and 10

O=C([O-])CCC(=O)N[C@@H](Cc1c[nH]cn1)C(=O)O.[Na+] [Compound V—1Na, N^α-succinyl-L-histidine Monosodium Salt]
effect on serum total triglycerides (in words) (rats with cholesterol loading): ability thereof to lower serum total triglyceride levels

O=C(O)CCC(=O)N[C@@H](Cc1c[nH]c2ccccc12)C(=O)[O-].[Na+] [II-1Na, N^+-succinyl-L-tryptophane Monosodium Salt]
Total cholesterol, HDL [6]: 49.5 ± 3.8 mg/100 ml | Total cholesterol, LDL + VLDL [6]: 60.2 ± 10.6 mg/100 ml | Triglycerides, HDL [6]: 32.6 ± 2.5 mg/100 ml | Triglycerides, LDL + VLDL [6]: 48.2 ± 4.9 mg/100 ml | Triglycerides, Serum [6]: 80.9 ± 5.5 mg/100 ml | Total cholesterol, Serum [7]: 109.7 ± 9.4 mg/100 ml | Total cholesterol, HDL [8]: 52.9 ± 4.1 mg/100 ml | Total cholesterol, LDL + VLDL [8]: 87.9 ± 14.5 mg/100 ml | Total cholesterol, Serum [8]: 140.8 ± 13.6 mg/100 ml | Triglycerides, HDL [8]: 44.5 ± 2.5 mg/100 ml | Triglycerides, LDL + VLDL [8]: 73.9 ± 15.4 mg/100 ml | Triglycerides, Serum [8]: 111.6 ± 17.2 mg/100 ml | Total cholesterol, HDL [9]: 54.7 ± 2.2 mg/100 ml | Total cholesterol, LDL + VLDL [9]: 79.7 ± 12.6 mg/100 ml | Total cholesterol, Serum [9]: 134.4 ± 12.5 mg/100 ml | Triglycerides, HDL [9]: 38.9 ± 2.4 mg/100 ml | Triglycerides, LDL + VLDL [9]: 69.6 ± 11.1 mg/100 ml | Triglycerides, Serum [9]: 108.5 ± 11.3 mg/100 ml

O=C([O-])CCCC(=O)N[C@@H](Cc1c[nH]c2ccccc12)C(=O)O.[Na+] [III-1Na, N^α-glutaryl-L-tryptophan Monosodium Salt]
Total cholesterol, HDL [6]: 49.0 ± 2.1 mg/100 ml | Total cholesterol, LDL + VLDL [6]: 40.0 ± 5.4 mg/100 ml | Triglycerides, HDL [6]: 30.0 ± 2.2 mg/100 ml | Triglycerides, LDL + VLDL [6]: 57.4 ± 9.1 mg/100 ml | Triglycerides, Serum [6]: 87.4 ± 9.4 mg/100 ml | Total cholesterol, Serum [7]: 89.0 ± 5.0 mg/100 ml | Total cholesterol, HDL [8]: 48.4 ± 2.7 mg/100 ml | Total cholesterol, LDL + VLDL [8]: 60.4 ± 8.3 mg/100 ml | Total cholesterol, Serum [8]: 108.8 ± 8.2 mg/100 ml | Triglycerides, HDL [8]: 45.2 ± 3.2 mg/100 ml | Triglycerides, LDL + VLDL [8]: 79.2 ± 7.7 mg/100 ml | Triglycerides, Serum [8]: 124.4 ± 8.9 mg/100 ml | Total cholesterol, HDL [9]: 48.8 ± 2.4 mg/100 ml | Total cholesterol, LDL + VLDL [9]: 53.5 ± 7.3 mg/100 ml | Total cholesterol, Serum [9]: 102.3 ± 6.9 mg/100 ml | Triglycerides, HDL [9]: 34.3 ± 2.3 mg/100 ml | Triglycerides, LDL + VLDL [9]: 75.0 ± 8.5 mg/100 ml | Triglycerides, Serum [9]: 109.3 ± 10.5 mg/100 ml | effect on HDL cholesterol (in words) (rats with cholesterol loading): did not change | effect on serum total triglycerides (in words) (rats with cholesterol loading): did not change | lowered cholesterol of the VLDL+LDL fractions [10]: 40% | lowered total cholesterol [10]: 29%

CC[C@H](C)C(=O)O[C@H]1C[C@@H](C)C=C2C=C[C@H](C)[C@H](CC[C@@H]3C[C@@H](O)CC(=O)O3)[C@H]21 [Lovastatine, reference compound]
Total cholesterol, CHDL [11]: 50.6 ± 1.3 mg/100 ml | Total cholesterol, CLLD + CLVLD [11]: 49.9 ± 0.9 mg/100 ml | Total cholesterol, Liver [11]: 2.41 ± 0.17 mg/g of tissue | Total cholesterol, Serum [11]: 100.5 ± 6.7 mg/100 ml | Triglycerids, Liver [11]: 6.25 ± 0.13 mg/g of tissue | Triglycerids, Serum [11]: 93.6 ± 7.5 mg/100 ml

CCC(C)(C)C(=O)O[C@H]1C[C@@H](C)C=C2C=C[C@H](C)[C@H](CC[C@@H]3C[C@@H](O)CC(=O)O3)[C@H]21 [Sim, Simvastatine, reference compound]
Total cholesterol, HDL [1]: 27.8 ± 2.7 mg/100 ml | Total cholesterol, LDL + VLDL [1]: 43.0 ± 8.3 mg/100 ml | Triglycerides, Serum [1]: 108.9 ± 6.9 mg/100 ml | Total cholesterol, Serum [2]: 73.6 ± 7.3 mg/100 ml | Total cholesterol, HDL [3]: 33.2 ± 1.8 mg/100 ml | Total cholesterol, LDL + VLDL [3]: 66.9 ± 13.4 mg/100 ml | Total cholesterol, Serum [3]: 100.1 ± 12.8 mg/100 ml | Triglycerides, Serum [3]: 119.9 ± 10.5 mg/100 ml | Total cholesterol, HDL [4]: 32.7 ± 1.2 mg/100 ml | Total cholesterol, LDL + VLDL [4]: 61.2 ± 9.7 mg/100 ml | Total cholesterol, Serum [4]: 93.9 ± 10.2 mg/100 ml | Triglycerides, Serum [4]: 142.0 ± 5.4 mg/100 ml | effect on HDL cholesterol (in words) (rats with cholesterol loading): did not effect
